Assays:
[1] = system: normal primary NK cells, pool 3 (3 donors) (IL-2 2.5 ng/mL); assay: percent inhibition of viability; higher = more inhibition; settings: 72 h
IMC-1 (IL-2 20 ng/mL) [2] = assay: as above; settings: 72 h
[3] = system: normal primary NK cells, pool 1 (3 donors) (IL-2 2.5 ng/mL); assay: as above; settings: 72 h
KHYG-1 (IL-2 2.5 ng/mL) [4] = assay: as above; settings: 72 h
NK-YS (IL-2 2.5 ng/mL) [5] = assay: as above; settings: 72 h
DERL-7 (IL-2 2.5 ng/mL) [6] = assay: as above; settings: 72 h
[7] = system: normal primary NK cells, pool 1 (3 donors), resting (IL-2 0 ng/mL); assay: as above; settings: 72 h
KAI3 (IL-2 2.5 ng/mL) [8] = assay: as above; settings: 72 h
NK-92 (IL-2 2.5 ng/mL) [9] = assay: as above; settings: 72 h
YT (IL-2 2.5 ng/mL) [10] = assay: as above; settings: 72 h
[11] = system: normal primary NK cells, pool 2 (3 donors) (IL-2 2.5 ng/mL); assay: as above; settings: 72 h
NKL (IL-2 2.5 ng/mL) [12] = assay: as above; settings: 72 h
SNK-6 (IL-2 2.5 ng/mL) [13] = assay: as above; settings: 72 h
[14] = system: normal NK cells expanded with K562-aAPC; assay: drug sensitivity score (DSS) (DSS units); higher = more sensitive; extreme values may be limits of the assay; settings: 72 h; IL-2 2.5 ng/mL
Experimental: (§1)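 Drug sensitivity and resistance testing on K562-aAPC-expanded normal NK cells: 5 concentrations (10-fold steps over a 10,000-fold range), 72 h at 37 °C, viability by CellTiter-Glo normalised to DMSO and benzethonium chloride controls; DSS from the fitted curve.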

[15] = system: normal NK cells expanded with K562-aAPC; assay: percent inhibition of viability; higher = more inhibition; settings: 72 h, IL-2 2.5 ng/mL
Experimental: as §1

[16] = system: normal primary NK cells, pool 3 (3 donors) (IL-2 2.5 ng/mL); assay: drug sensitivity score (DSS) (DSS units); higher = more sensitive; extreme values may be limits of the assay; settings: 72 h
IMC-1 (IL-2 20 ng/mL) [17] = assay: as above; settings: 72 h
[18] = system: normal primary NK cells, pool 1 (3 donors) (IL-2 2.5 ng/mL); assay: as above; settings: 72 h
KHYG-1 (IL-2 2.5 ng/mL) [19] = assay: as above; settings: 72 h
NK-YS (IL-2 2.5 ng/mL) [20] = assay: as above; settings: 72 h
DERL-7 (IL-2 2.5 ng/mL) [21] = assay: as above; settings: 72 h
[22] = system: normal primary NK cells, pool 1 (3 donors), resting (IL-2 0 ng/mL); assay: as above; settings: 72 h
KAI3 (IL-2 2.5 ng/mL) [23] = assay: as above; settings: 72 h
NK-92 (IL-2 2.5 ng/mL) [24] = assay: as above; settings: 72 h
YT (IL-2 2.5 ng/mL) [25] = assay: as above; settings: 72 h
[26] = system: normal primary NK cells, pool 2 (3 donors) (IL-2 2.5 ng/mL); assay: as above; settings: 72 h
NKL (IL-2 2.5 ng/mL) [27] = assay: as above; settings: 72 h
SNK-6 (IL-2 2.5 ng/mL) [28] = assay: as above; settings: 72 h

CC(C)(C)c1cnc(CSc2cnc(NC(=O)C3CCNCC3)s2)o1 [SNS-032] (max concentration tested 10000 nM)
percent inhibition of viability [%]
Settings	1 nM	10 nM	100 nM	1000 nM	10000 nM
DERL-7 (IL-2 2.5 ng/mL) [6]	0.08	-3.51	77.5	100	100
IMC-1 (IL-2 20 ng/mL) [2]	-4.98	-6.51	97.6	99.1	98.8
KAI3 (IL-2 2.5 ng/mL) [8]	-8.15	9.55	57.9	103	98.3
KHYG-1 (IL-2 2.5 ng/mL) [4]	-2.99	-6.55	4.29	102	102
NK-92 (IL-2 2.5 ng/mL) [9]	-11.5	-4.07	11.5	98.8	101
NK-YS (IL-2 2.5 ng/mL) [5]	-1.14	9.07	83.6	100	99.8
NKL (IL-2 2.5 ng/mL) [12]	-10.4	11.6	97.8	106	103
SNK-6 (IL-2 2.5 ng/mL) [13]	17.9	2.01	31.7	54	38
YT (IL-2 2.5 ng/mL) [10]	-0.35	4.14	57.7	103	101
[1]	-17.4	-11.5	48.5	98.1	99
[3]	-14.2	-9.83	88.9	98.2	98.8
[7]	-12.8	-19.9	79.9	91.5	93.9
[11]	-21	-13.7	80.7	94.5	96.5
[15]	2.77	0	29.2	100	100

Settings	drug sensitivity score
DERL-7 (IL-2 2.5 ng/mL) [21]	26.9
IMC-1 (IL-2 20 ng/mL) [17]	29.5
KAI3 (IL-2 2.5 ng/mL) [23]	25.1
KHYG-1 (IL-2 2.5 ng/mL) [19]	18.7
NK-92 (IL-2 2.5 ng/mL) [24]	19.8
NK-YS (IL-2 2.5 ng/mL) [20]	29
NKL (IL-2 2.5 ng/mL) [27]	32.3
SNK-6 (IL-2 2.5 ng/mL) [28]	13.4
YT (IL-2 2.5 ng/mL) [25]	24.9
[14]	22.3
[16]	23.9
[18]	28.1
[22]	26.1
[26]	26.6

C[C@@H]1CCN(C(=O)CC#N)C[C@@H]1N(C)c1ncnc2[nH]ccc12 [Tofacitinib] (max concentration tested 5000 nM)
percent inhibition of viability [%]
Settings	0.5 nM	5 nM	50 nM	500 nM	5000 nM
DERL-7 (IL-2 2.5 ng/mL) [6]	4.68	5.82	37.9	76.5	100
IMC-1 (IL-2 20 ng/mL) [2]	-6.11	-7.94	-16.8	34.5	92.1
KAI3 (IL-2 2.5 ng/mL) [8]	-5.21	10.5	45.3	82.7	85.5
KHYG-1 (IL-2 2.5 ng/mL) [4]	-4.2	2.4	59.4	100	98.6
NK-92 (IL-2 2.5 ng/mL) [9]	-2.4	-2.12	17.6	66.9	80.8
NK-YS (IL-2 2.5 ng/mL) [5]	-1.06	4.19	22	56.2	67.5
NKL (IL-2 2.5 ng/mL) [12]	-18.4	5	56.6	78.2	86.8
SNK-6 (IL-2 2.5 ng/mL) [13]	-3.6	10	22.4	80.2	77.1
YT (IL-2 2.5 ng/mL) [10]	-1.31	-0.82	0.63	46.5	64.1
[1]	-10.3	-4.27	6.35	48.6	60.7
[3]	-7	-4.5	19.9	68.1	69.8
[7]	-2.2	-5.26	-18	7.52	-1.29
[11]	-14	-8.22	19.6	60.2	67
[15]	0.56	-0.5	34.7	89.7	96.1

Settings	drug sensitivity score
DERL-7 (IL-2 2.5 ng/mL) [21]	19.1
IMC-1 (IL-2 20 ng/mL) [17]	9.8
KAI3 (IL-2 2.5 ng/mL) [23]	20.8
KHYG-1 (IL-2 2.5 ng/mL) [19]	25.1
NK-92 (IL-2 2.5 ng/mL) [24]	14.5
NK-YS (IL-2 2.5 ng/mL) [20]	13
NKL (IL-2 2.5 ng/mL) [27]	22.6
SNK-6 (IL-2 2.5 ng/mL) [28]	17.6
YT (IL-2 2.5 ng/mL) [25]	8.99
[14]	20.7
[16]	9.81
[18]	15.6
[22]	0
[26]	13.7

Nc1cc(C(F)(F)F)c(-c2cc(N3CCOCC3)nc(N3CCOCC3)n2)cn1 [Buparlisib] (max concentration tested 10000 nM)
percent inhibition of viability [%]
Settings	1 nM	10 nM	100 nM	1000 nM	10000 nM
DERL-7 (IL-2 2.5 ng/mL) [6]	-4.02	6.38	3.7	42.2	89.9
IMC-1 (IL-2 20 ng/mL) [2]	-4.05	-1.36	2.62	-18.8	99.3
KAI3 (IL-2 2.5 ng/mL) [8]	-7.19	-5.48	-0.56	43	74.8
KHYG-1 (IL-2 2.5 ng/mL) [4]	-1.22	-0.26	7	57.9	101
NK-92 (IL-2 2.5 ng/mL) [9]	7.02	-3.67	15.7	52.4	96.2
NK-YS (IL-2 2.5 ng/mL) [5]	-0.4	-0.39	9.67	55	80
NKL (IL-2 2.5 ng/mL) [12]	-8.01	-1.84	8.57	69.1	73.8
SNK-6 (IL-2 2.5 ng/mL) [13]	33.1	31.2	38.8	73.2	92.7
YT (IL-2 2.5 ng/mL) [10]	-0.5	0.16	7.95	41.5	100
[1]	-11.4	-7.58	0	0.01	19.4
[3]	-1.97	-13.5	-2.5	4.32	28.6
[7]	6.15	-7.57	-1.1	2.62	26.9
[11]	-19.2	-7.45	6.25	8.14	26.6
[15]	-3.33	-1.98	1.34	25.6	67

Settings	drug sensitivity score
DERL-7 (IL-2 2.5 ng/mL) [21]	9.98
IMC-1 (IL-2 20 ng/mL) [17]	4.51
KAI3 (IL-2 2.5 ng/mL) [23]	9.35
KHYG-1 (IL-2 2.5 ng/mL) [19]	12.6
NK-92 (IL-2 2.5 ng/mL) [24]	12.2
NK-YS (IL-2 2.5 ng/mL) [20]	11.7
NKL (IL-2 2.5 ng/mL) [27]	14
SNK-6 (IL-2 2.5 ng/mL) [28]	23.7
YT (IL-2 2.5 ng/mL) [25]	10.4
[14]	7.15
[16]	0.55
[18]	1.89
[22]	1.48
[26]	1.72

Reference: the supplement of paper PMC5908809
